Results taken from PubChem BioAssay (NCI).
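Tested at 5 concentrations; 48 h exposure; 96-well plates; endpoints linearly interpolated, else capped at highest concentration. GI50 is the concentration that inhibits growth by half. TGI: total growth inhibition.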

Key:
Test in all cases: growth of human tumour cells (NCI), 48 h
PC-3 prostate = test system: PC-3 prostate
NCI/ADR-RES ovarian = test system: NCI/ADR-RES ovarian
MDA-MB-435 = test system: MDA-MB-435
NCI-H23 lung = test system: NCI-H23 lung
SK-MEL-28 melanoma = test system: SK-MEL-28 melanoma
A498 renal = test system: A498 renal
MCF7 breast = test system: MCF7 breast
A549 NSCLC = test system: A549 NSCLC
SNB-19 CNS = test system: SNB-19 CNS
OVCAR-8 ovarian = test system: OVCAR-8 ovarian

SMILES | GI50 (PC-3 prostate) | TGI (PC-3 prostate) | GI50 (NCI/ADR-RES ovarian) | TGI (NCI/ADR-RES ovarian) | GI50 (MDA-MB-435) | TGI (MDA-MB-435) | GI50 (NCI-H23 lung) | TGI (NCI-H23 lung) | GI50 (SK-MEL-28 melanoma) | TGI (SK-MEL-28 melanoma) | GI50 (A498 renal) | TGI (A498 renal) | GI50 (MCF7 breast) | TGI (MCF7 breast) | GI50 (A549 NSCLC) | TGI (A549 NSCLC) | GI50 (SNB-19 CNS) | TGI (SNB-19 CNS) | GI50 (OVCAR-8 ovarian) | TGI (OVCAR-8 ovarian)
COc1cc(/C=C2\C(=O)Nc3cccc(Cl)c32)cc(OC)c1OC | > 100 µM | > 100 µM | > 100 µM | > 100 µM | > 100 µM | > 100 µM | > 100 µM | > 100 µM | > 100 µM | > 100 µM | > 100 µM | > 100 µM | > 100 µM | > 100 µM | > 100 µM | > 100 µM | 60.1 µM | > 100 µM | > 100 µM | > 100 µM
Cc1cc(N(CCCl)CCCl)ccc1/C=N/NC(=O)Cc1cc(=O)oc2cc(O)ccc12 |  | 27.5 µM |  | > 100 µM |  | 38.5 µM |  | 58.6 µM |  | 41.9 µM |  | 45.3 µM |  | 20.4 µM |  | 42.2 µM |  | 41 µM |  | > 100 µM
CC(C)Nc1ncc2cc(Oc3ccc(F)cc3F)c(=O)n(C)c2n1 | > 25 µM | > 25 µM | > 25 µM | > 25 µM | > 25 µM | > 25 µM | > 25 µM | > 25 µM | > 25 µM | > 25 µM | 5.39 µM | > 25 µM | > 25 µM | > 25 µM | > 25 µM | > 25 µM | > 25 µM | > 25 µM | > 25 µM | > 25 µM
CC1(C)CC(Nc2ccc(Nc3ccccc3)cc2)CC(C)(C)N1 |  | 32.3 µM |  | 66.9 µM |  | 33.6 µM |  | 63.7 µM |  | 33.8 µM |  | 55.3 µM |  | 33.5 µM |  | > 86.2 µM |  | > 80.7 µM |  | 66.3 µM
O=[N+]([O-])c1ccc2nc3ccccc3cc2c1 |  | 10.2 µM |  | 3.47 µM |  | 3.76 µM |  | 6.22 µM |  | 10.7 µM |  | 3.27 µM |  | > 100 µM |  | 8.95 µM |  | 12.9 µM |  | 2.58 µM
NC(=O)c1ccc2nc3c(n2c1)C(=O)C(=O)c1ccccc1-3 | 1.04 µM | 2.78 µM | 1.88 µM | 6.19 µM | 0.186 µM | 0.336 µM | 0.42 µM | 2.8 µM | 1.07 µM | 2.29 µM | 1.73 µM | 3.14 µM | 0.23 µM | 0.702 µM | 2.18 µM | 4.48 µM | 1.1 µM | 2.31 µM | 0.403 µM | 1.63 µM
Cc1c(N=Cc2ccc(N(CCC#N)CCC#N)cc2)c(=O)n(-c2ccccc2)n1C |  | > 100 µM |  | > 100 µM |  | > 100 µM |  | > 100 µM |  | > 100 µM |  | > 100 µM |  | > 100 µM |  | > 100 µM |  | > 100 µM |  | > 100 µM
CC(C)c1ccc(NC(=S)NC(=O)c2ccccc2)cc1 |  | > 100 µM |  | > 100 µM |  | 28.1 µM |  | 68 µM |  | 48.3 µM |  | 74.1 µM |  | 48.8 µM |  | > 100 µM |  | > 100 µM |  | > 100 µM
